Common to all, as to format: cell-based
Assay [1] deals with T1, human prostanoid EP2 receptor (Homo sapiens, UniProt P43116).
T1 construct: expressed in transfected cells
Nature of the assay: FLIPR Ca2+ signaling PG antagonist assay, EP2 stable cell line. The note with it: HEK-293 EBNA cells, human recombinant EP2 with chimeric Gqs; standard agonist PGE2. The method, boiled down: (§1)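 HEK-293 EBNA stable lines; EP2 co-expressed with chimeric Gqs, EP1/IP/TP with no exogenous G protein. Fluo-4AM-loaded cells pretreated 4.5 min at 37 °C with compound (0.1–30 μM; TP 0.067–1 μM), then standard agonist (PGE2, cicaprost, U-46619) 10^−11–10^−5 M (TP 10^−12–10^−6 M); peak fluorescence read 3.5 min, nonlinear regression.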

The target in assay [2] is T2, human prostanoid TP receptor (Homo sapiens, UniProt P21731).
T2 construct: expressed in transfected cells
T2 sequence (P21731 1-343): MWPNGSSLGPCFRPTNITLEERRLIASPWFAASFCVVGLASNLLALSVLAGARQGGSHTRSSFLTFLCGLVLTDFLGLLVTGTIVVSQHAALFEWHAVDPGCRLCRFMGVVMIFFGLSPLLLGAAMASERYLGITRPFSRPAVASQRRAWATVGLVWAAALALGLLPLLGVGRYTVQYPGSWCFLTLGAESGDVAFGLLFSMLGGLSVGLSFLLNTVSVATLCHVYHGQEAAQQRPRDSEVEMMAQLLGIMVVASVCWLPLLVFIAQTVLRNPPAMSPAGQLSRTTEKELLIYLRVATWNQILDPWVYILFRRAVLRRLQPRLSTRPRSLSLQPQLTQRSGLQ
Nature of the assay: FLIPR Ca2+ signaling PG antagonist assay, TP stable cell line. The note with it: HEK-293 EBNA cells, human recombinant TP, no exogenous G-protein; standard agonist U-46619. The procedure, abridged:
as §1

Assay [3] addresses T3, human prostanoid EP1 receptor (Homo sapiens, UniProt P34995).
T3 construct: expressed in transfected cells
T3 sequence (P34995 1-402): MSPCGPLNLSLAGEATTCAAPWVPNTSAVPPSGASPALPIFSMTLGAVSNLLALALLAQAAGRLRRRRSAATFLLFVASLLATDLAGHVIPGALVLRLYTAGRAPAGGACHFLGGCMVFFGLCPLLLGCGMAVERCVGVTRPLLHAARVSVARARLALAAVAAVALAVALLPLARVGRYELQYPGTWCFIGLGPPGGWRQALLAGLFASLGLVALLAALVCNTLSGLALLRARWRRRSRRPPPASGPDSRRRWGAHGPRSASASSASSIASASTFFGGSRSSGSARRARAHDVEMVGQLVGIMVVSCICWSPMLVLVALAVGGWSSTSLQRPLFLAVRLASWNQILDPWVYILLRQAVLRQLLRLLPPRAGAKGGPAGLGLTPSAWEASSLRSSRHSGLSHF
The experiment in a line: FLIPR Ca2+ signaling PG antagonist assay, EP1 stable cell line. The note with it: HEK-293 EBNA cells, human recombinant EP1, no exogenous G-protein; standard agonist PGE2. The procedure, abridged:
as §1

T1 sequence (P43116 whole entry): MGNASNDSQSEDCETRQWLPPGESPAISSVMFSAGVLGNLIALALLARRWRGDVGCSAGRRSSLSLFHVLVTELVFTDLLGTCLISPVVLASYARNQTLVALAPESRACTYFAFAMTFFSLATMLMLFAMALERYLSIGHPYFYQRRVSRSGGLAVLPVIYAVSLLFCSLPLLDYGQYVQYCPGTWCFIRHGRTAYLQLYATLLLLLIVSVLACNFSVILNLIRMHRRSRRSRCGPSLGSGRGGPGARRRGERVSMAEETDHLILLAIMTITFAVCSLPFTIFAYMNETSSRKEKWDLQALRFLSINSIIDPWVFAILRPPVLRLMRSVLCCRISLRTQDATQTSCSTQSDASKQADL

As a reminder, the Kb is the equilibrium dissociation constant of an antagonist, usually derived from a functional assay. `CC(C)COc1ccc(O)cc1Cn1ncc2cc(C(=O)O)ccc21` [Example 54]: the Kb in assay [1] is no less than 10 µM; in assay [2] it was 0.64 µM; in assay [3], 1.3 µM.

For `CC(C)COc1ccc(OCC(F)F)cc1Cn1ncc2cc(C(=O)O)ccc21` [Example 55, 1-[5-(2,2-Difluoro-Ethoxy)-2-Isobutoxy-Benzyl]-1H-Indazole-5-Carboxylic Acid], the Kb in assay [1] was no less than 10 µM; in assay [2], 0.3 µM; in assay [3] it was 0.04 µM.

In the case of `CC(C)COc1ccc(OC(F)F)cc1Cn1ncc2cc(C(=O)O)ccc21` [Example 56, 1-(5-Difluoromethoxy-2-Isobutoxy-Benzyl)-1H-Indazole-5-Carboxylic Acid], the Kb was no less than 10 µM in assay [1], 0.005 µM in assay [2] and 0.024 µM in assay [3].

Regarding `CC(C)COc1ccc(Cl)cc1Cn1ncc2cc(C(=O)O)cnc21` [Example 57, 1-(5-Chloro-2-Isobutoxy-Benzyl)-1H-Pyrazolo[3,4-B]Pyridine-5-Carboxylic Acid], the results for the Kb in assay [1], in assay [2] and in assay [3] were no less than 10 µM, 0.15 µM and 0.027 µM, respectively.

In the case of `CC(C)COc1ccc(OC(F)(F)F)cc1Cn1ncc2cc(C(=O)O)cnc21` [Example 58, 1-(2-Isobutoxy-5-Trifluoromethoxy-Benzyl)-1H-Pyrazolo[3,4-B]Pyridine-5-Carboxylic Acid], the Kb in assay [1] was no less than 10 µM; in assay [2], 0.07 µM; in assay [3], 0.03 µM.

For `CCC(CC)COc1ccc(Br)cc1Cn1nc(C)c2cc(C(=O)O)cnc21` [Example 59, 1-[5-Bromo-2-(2-Ethyl-Butoxy)-Benzyl]-3-Methyl-1H-Pyrazolo[3,4-B]Pyridine-5-Carboxylic Acid], the Kb in assay [1] is no less than 10 µM; in assay [2], 0.32 µM; in assay [3], 0.28 µM.

As to `CCC(CC)COc1ccc(Cl)cc1Cn1nc(C)c2cc(C(=O)O)cnc21` [Example 60, 1-[5-Chloro-2-(2-Ethyl-Butoxy)-Benzyl]-3-Methyl-1H-Pyrazolo[3,4-B]Pyridine-5-Carboxylic Acid], the Kb came to 7.5 µM in assay [1], 0.41 µM in assay [2] and 0.41 µM in assay [3].

Regarding `Cc1nn(Cc2cc(Cl)ccc2OCC(C)C)c2ncc(C(=O)O)cc12` [Example 61, 1-(5-Chloro-2-Isobutoxy-Benzyl)-3-Methyl-1H-Pyrazolo[3,4-B]Pyridine-5-Carboxylic Acid], the Kb in assay [1] is no less than 10 µM; in assay [2], 0.3 µM; in assay [3], 0.18 µM.

As to `CCC(CC)COc1ccc(Cl)cc1Cn1ncc2cc(C(N)=O)ncc21` [Example 62, 1-[5-Chloro-2-(2-Ethyl-Butoxy)-Benzyl]-1H-Pyrazolo[3,4-C]Pyridine-5-Carboxylic Acid Amide], the Kb in assay [1], in assay [2] and in assay [3] was no less than 10 µM each time.

As for `CCC(CC)COc1ccc(Cl)cc1Cn1ncc2cc(C(=O)O)ncc21` [Example 63, 1-[5-Chloro-2-(2-Ethyl-Butoxy)-Benzyl]-1H-Pyrazolo[3,4-C]Pyridine-5-Carboxylic Acid], the results for the Kb in assay [1], in assay [2] and in assay [3] were no less than 10 µM, 0.18 µM and 1.2 µM, respectively.

For `CCc1nn(Cc2cc(Br)ccc2OCC(C)C)c2ccc(C(=O)O)cc12` [Example 64, 1-(5-Bromo-2-Isobutoxy-Benzyl)-3-Ethyl-1H-Indazole-5-Carboxylic Acid], the results for the Kb in assay [1], in assay [2] and in assay [3] were 3.1 µM, 0.008 µM and 0.005 µM, respectively.

With `CCc1nn(Cc2cc(Br)ccc2OCC(CC)CC)c2ccc(C(=O)O)cc12` [Example 65, 1-[5-Bromo-2-(2-Ethyl-Butoxy)-Benzyl]-3-Ethyl-1H-Indazole-5-Carboxylic Acid], the Kb in assay [1] is 6.5 µM; in assay [2], 0.052 µM; in assay [3], 0.04 µM.

Turning to `Cc1cc2cc(C(=O)O)ccc2n1Cc1cc(Br)ccc1OCC(C)C` [Example 66, 1-(5-Bromo-2-Isobutoxy-Benzyl)-2-Methyl-1H-Indole-5-Carboxylic Acid], the Kb in assay [1] is no less than 10 µM; in assay [2] it was 0.32 µM; in assay [3] it was 0.05 µM.

Regarding `CC(C)COc1ccc(Br)cc1Cn1ccc2cc(C(=O)O)ccc21` [Example 67, 1-(5-Bromo-2-Isobutoxy-Benzyl)-1H-Indole-5-Carboxylic Acid], the Kb in assay [1] was no less than 10 µM; in assay [2] it was 0.16 µM; in assay [3] it was 0.06 µM.

Consider `CCC(CC)COc1ccc(Br)cc1Cn1c(C)cc2cc(C(=O)O)ccc21` [Example 68, 1-[5-Bromo-2-(2-Ethyl-Butoxy)-Benzyl]-2-Methyl-1H-Indole-5-Carboxylic Acid], for which the Kb in assay [1], in assay [2] and in assay [3] was no less than 10 µM throughout.

As for `CCC(CC)COc1ccc(Br)cc1Cn1ccc2cc(C(=O)O)ccc21` [Example 69, 1-[5-Bromo-2-(2-Ethyl-Butoxy)-Benzyl]-1H-Indole-5-Carboxylic Acid], the antagonist equilibrium constant (Kb) in assay [1] is no less than 10 µM; in assay [2] it was 0.55 µM; in assay [3] it was 0.25 µM.

For the compound `CCC(CC)COc1ccc(Br)cc1Cn1ccc2ccc(C(=O)O)cc21` [Example 70, 1-[5-Bromo-2-(2-Ethyl-Butoxy)-Benzyl]-1H-Indole-6-Carboxylic Acid], the Kb was no less than 10 µM in assay [1], 0.32 µM in assay [2] and 0.2 µM in assay [3].

For `CC(C)COc1ccc(OC(F)(F)F)cc1Cn1ccc2cc(C(=O)O)ccc21` [Example 71, 1-(2-Isobutoxy-5-Trifluoromethoxy-Benzyl)-1H-Indole-5-Carboxylic Acid], the Kb is no less than 10 µM in assay [1], 0.6 µM in assay [2] and 0.1 µM in assay [3].

For `CC(C)COc1ccc(Br)cc1Cn1ccc2cc(C(=O)O)cnc21` [Example 72, 1-(5-Bromo-2-Isobutoxy-Benzyl)-1H-Pyrrolo[2,3-B]Pyridine-5-Carboxylic Acid], the Kb is no less than 10 µM in assay [1], 0.003 µM in assay [2] and 0.01 µM in assay [3].

With `CC(C)COc1ccc(Br)cc1Cn1ccc2nc(C(=O)O)ccc21` [Example 73, 1-(5-Bromo-2-Isobutoxy-Benzyl)-1H-Pyrrolo[3,2-B]Pyridine-5-Carboxylic Acid], the Kb in assay [1] was no less than 10 µM; in assay [2] it was 0.008 µM; in assay [3], 0.08 µM.

As to `CC(C)COc1ccc(OC(F)(F)F)cc1Cn1ccc2cc(C(=O)O)cnc21` [Example 74, 1-(2-Isobutoxy-5-Trifluoromethoxy-Benzyl)-1H-Pyrrolo[2,3-B]Pyridine-5-Carboxylic Acid], the Kb in assay [1] was no less than 10 µM; in assay [2], 0.02 µM; in assay [3], 0.06 µM.

Turning to `Cc1cn(Cc2cc(OC(F)(F)F)ccc2OCC(C)C)c2ccc(C(=O)O)cc12` [Example 75, 1-(2-Isobutoxy-5-Trifluoromethoxy-Benzyl)-3-Methyl-1H-Indole-5-Carboxylic Acid], the Kb in assay [1] worked out at 6.4 µM; in assay [2], 0.3 µM; in assay [3] it was 0.02 µM.

In the case of `CCC(CC)COc1ccc(OC(F)(F)F)cc1Cn1cc(C)c2cc(C(=O)O)ccc21` [Example 77, 1-[2-(2-Ethyl-Butoxy)-5-Trifluoromethoxy-Benzyl]-3-Methyl-1H-Indole-5-Carboxylic Acid], the figures for the Kb in assay [1], in assay [2] and in assay [3] were 9.2 µM, 1.1 µM and 0.9 µM, respectively.

As for `CCC(CC)COc1ccc(Br)cc1Cn1cnc2cc(C(=O)O)ccc21` [Example 78, 1-[5-Bromo-2-(2-Ethyl-Butoxy)-Benzyl]-1H-Benzoimidazole-5-Carboxylic Acid], the figures for the Kb in assay [1], in assay [2] and in assay [3] were no less than 10 µM, 0.016 µM and 0.145 µM, respectively.

In the case of `CC(C)COc1ccc(Br)cc1Cn1cnc2cc(C(=O)O)ccc21` [Example 79, 1-(5-Bromo-2-Isobutoxy-Benzyl)-1H-Benzoimidazole-5-Carboxylic Acid], the results for the Kb in assay [1], in assay [2] and in assay [3] were no less than 10 µM, 0.008 µM and 0.011 µM, respectively.

These data come from US10988474B2, “Compounds acting at multiple prostaglandin receptors giving a general anti-inflammatory response” (ALLERGAN, INC., priority 2011, dated 2021).
